Test results from patent US8613962B2, “Prophylactic or alleviating agent for peripheral nerve disorder induced by anti-cancer agent” (Kyushu University, National University Corporation, priority 2007, dated 2013).

How the values were obtained:
[1] = system: rat peripheral nerve disorder induced by oxaliplatin; details: rats; oxaliplatin alone 4 mg/kg i.p. twice per week; second week; FIG. 5
[2] = system: rat peripheral nerve disorder induced by oxaliplatin; details: rats; oxaliplatin alone 4 mg/kg i.p.; second week; FIG. 6
[3] = system: rat peripheral nerve disorder induced by paclitaxel; assay type: in vivo; details: SD male rats; paclitaxel alone 6 mg/kg i.p. once a week for 4 weeks; FIG. 1
[4] = system: rat peripheral nerve disorder induced by paclitaxel; assay type: in vivo; details: SD male rats; paclitaxel alone 6 mg/kg i.p.; FIG. 2
[5] = system: rat peripheral nerve disorder induced by paclitaxel; assay type: in vivo; details: rats; paclitaxel alone
Experimental: 7 and 8-week-old SD male rats were used as experimental animals and separated into three groups of a control group, group administered with paclitaxel, and group administered with paclitaxel and the test substance (group administered with paclitaxel+test substance). To the group administered with paclitaxel, paclitaxel (6 mg/kg) was intraperitoneally administered once a week for 4 weeks in a total of 4 times. To the group administered with paclitaxel+test substance, the test substance (200 NU/kg) was orally administered three times a week, that is, just before the paclitaxel administration and on days 1 and 2 after the paclitaxel administration, for 4 weeks in a total of 12 times. To the control group, a solvent (polyoxyethylene castor oil:ethanol=1:1) used in the paclitaxel administration was similarly administered.

PC12 cells = assay type: cell-based, rat; details: forskolin-induced, 10 ng/mL paclitaxel only, 168 hours, FIG. 3
DRG cells = assay type: cell-based, rat; details: 10 ng/mL paclitaxel only, 168 hours, FIG. 4

50% reaction threshold value (von Frey test), compared with control group [3]	latent time to avoidance reaction (acetone test, cold stimuli) [4]	latent time (plantar test, heat stimuli) [5]	neurite outgrowth (neurite length) (PC12 cells)	neurite outgrowth (neurite length) (DRG cells)	SMILES	50% reaction threshold value (von Frey test), compared with control group [1]	latent time to posterior foot avoidance (cold plate test, 4° C.) [2]
–	–	–	–	–	O=C1[O][Pt]2([NH][C@@H]3CCCC[C@H]3[NH]2)[O]C1=O [oxaliplatin]	remarkably lowered	remarkably shortened
remarkably lowered	remarkably shortened	not shortened	inhibited	inhibited	CC(=O)O[C@H]1C(=O)[C@@]2(C)[C@H]([C@H](OC(=O)c3ccccc3)[C@]3(O)C[C@H](OC(=O)[C@H](O)[C@@H](NC(=O)c4ccccc4)c4ccccc4)C(C)=C1C3(C)C)[C@]1(OC(C)=O)CO[C@@H]1C[C@@H]2O [paclitaxel]	–	–
